Measurements published in US20080280849A1, “Synergic Combinations Comprising a Quinoline Compound and Other Hiv Infection Therapeutic Agents” (priority 2005, published 2008).
Like-named read-outs stand apart in the source and are kept apart here.

Test system: NL43 HIV-1 laboratory strain
Assay: NL43 HIV-1 laboratory strain replication assay with HelaCD4+β-Gal indicator cells (P4 cells), CPRG development, CalcuSyn analysis
Type: cell-based
Experimental: Synergistic interactions between quinoline compounds (BA011FZ041) and either RT (zidovudine and nevirapine) or other integrase inhibitors (L-731,988) were investigated using a NL43 HIV-1 laboratory strain replication assay. Virus infectivity in the presence of inhibitors was monitored with HelaCD4+β-Gal indicator cells (P4 cells). Inhibition by combination of BA011FZ041 and other inhibitors was evaluated at three fixed molar BA011FZ041/Inhibitor ratios: 1:1, 1:2, and 2:1. Three independent experiments with triplicate data points were performed for each ratio. Interactions were calculated by the multiple drug effect equation of Chou and Talalay (Chou and Talalay, 1983; and Chou and Talalay, 1984) based on the median effect principle, using CalcuSyn® software (Biosoft, UK).
On the day prior to the test, 5,000 HeLaP4 cells per well are seeded in 100 μl of 10% FBS DMEM supplemented with […] penicillin, 100 μg/ml streptomycin and 0.5 mg/ml geniticin (G418). Otherwise, in the morning of the test, 10,000 HeLaP4 cells are seeded per well in 100 μl of 10% FBS DMEM supplemented with […] penicillin, 100 μg/ml streptomycin and 0.5 mg/ml geniticin (G418).
One plate of cells is used for the 2 drugs alone+half a plate per ratio tested is used for development with CPRG and, as necessary, an equivalent number of plates for the MTT toxicity test.
Several drug-drug ratios are tested: 1:1, 1:2, 2:1, 1:4 and 4:1.
Ratios are expressed relative to IC50 values. For the 1:1 ratio, the IC50 concentration for (BA011FZ041+drug X) is the IC50 concentration for BA011FZ041+the IC50 concentration for drug X.
For the 1:2 ratio, the IC50 concentration for (BA011FZ041+drug X) is the IC50 concentration for BA011FZ041+twice the IC50 concentration for drug X.
The form of BA011FZ041 tested is the sodium carbonate salt.
Further dilutions are also performed using PBS and are then distributed at 5 μl per well. • For DMSO: the molecules are resuspended at a concentration 200-fold higher than that finally required in the well so that DMSO be non toxic for the HeLa P4 cells. The quantity of DMSO is constant for each drug concentration tested.
In practice, initial dilutions are performed using DMSO, with these solutions then being rediluted fivefold in PBS or culture medium so as to obtain concentrations 40-fold higher than those finally required in the well. The solutions are then distributed at 5 μl per well.
Prior to infection, the wells are filled up to a final volume of 200 μl with 40 or 45 μl of medium.
NL4.3 viral supernatant has been produced by CaCl2 transfection of 293T cells. The HeLa P4 cells are infected with NL 4.3 HIV virus, with about 1 to 2 ng of P24 per well.
Depending on the P24 content of the virus used, a virus solution+10% FBS DMEM supplemented with […] penicillin, 100 μg/ml streptomycin and 0.5 mg/ml geniticin (G418) is prepared and is then distributed at 50 μl per well.
The plates are incubated at 37° C., 5% CO2, for 60 hours.
The CPRG (chlorophenol red-β-D-galactopyranoside) test is a […] test enabling measurement of the quantity of β-galactosidase produced during viral infection (the β-gal gene is under the control of the TAR element which in turn is controlled by the viral. TAT).
The supernatant is removed from the plates of HelaP4 cells. 100 μl of CPRG lysis buffer is added per well (for 110 wells: Na2HPO4 (0.5M) 1687 μL, NaH2PO4 (1M) 440 μL, KCl (1M) 110 μL, MgSO4 (1M) 220 μL, EDTA (0.5M) 55 μL, β-mercaptoethanol 39 μL, NP40 14 μL, water 8617 μL).
The cells are incubated for 10 minutes at 37° C. in order to obtain full cell lysis. The lysed wells are homogenized and 50 μl of each lysate is transferred into the corresponding well of another plate containing 100 μl reaction buffer (for 110 wells: pH 7.4 phosphate buffer (1M) 880 μL, MgCl2 99 μL, β-mercaptoethanol 77 μL, water 8140 μL, CPRG (250 mg of CPRG dissolved in 9.1 ml of Millipore water+455 μl pH 7.4 sodium phosphate buffer) 1833 μL).

Cc1ccnc2c1NC(=O)c1cccnc1N2C1CC1 [Nev]
IC50 (Human immunodeficiency virus 1, NL43, Table 6, Ratio 1:1 series, drug alone, Mean, read-out: IC50 Nev, drug alone): 39 nM | IC50 (Human immunodeficiency virus 1, NL43, Table 6, Ratio 1:2 series, drug alone, Mean, read-out: IC50 Nev, drug alone): 41 nM | IC50 (Human immunodeficiency virus 1, NL43, Table 6, Ratio 2:1 series, drug alone, Mean, read-out: IC50 Nev, drug alone): 39 nM | IC50 (Human immunodeficiency virus 1, NL43, in the mix with FZ41, Ratio 1:1, Mean, read-out: IC50 Nev, in the mix): 11 nM | IC50 (Human immunodeficiency virus 1, NL43, in the mix with FZ41, Ratio 1:2, Mean, read-out: IC50 Nev, in the mix): 18 nM | IC50 (Human immunodeficiency virus 1, NL43, in the mix with FZ41, Ratio 2:1, Mean, read-out: IC50 Nev, in the mix): 6.3 nM

COc1cc(C=Cc2ccc3ccc(C(=O)O)c(O)c3n2)cc(O)c1O [BA011FZ041, 8-hydroxy-2-[2-[(3,4-dihydroxy-5-methoxy-phenyl)ethenyl]]7-quinoline carboxylic acid]
IC50 (Table 6, Ratio 1:1 series with Nev, drug alone, Mean, read-out: IC50 FZ41, drug alone): 1600 nM | IC50 (Table 6, Ratio 1:2 series with Nev, drug alone, Mean, read-out: IC50 FZ4, drug alone): 1500 nM | IC50 (Table 6, Ratio 2:1 series with Nev, drug alone, Mean, read-out: IC50 FZ41, drug alone): 1500 nM | IC50 (Table 8, Ratio 1:1 series with ZVD, drug alone, Mean, read-out: IC50 FZ41, drug alone): 1400 nM | IC50 (Table 8, Ratio 1:2 series with ZVD, drug alone, Mean, read-out: IC50 FZ41, drug alone): 1700 nM | IC50 (Table 8, Ratio 2:1 series with ZVD, drug alone, Mean, read-out: IC50 FZ41, drug alone): 1700 nM | IC50 (Table 10, Ratio 1:1 series with L-731,988, drug alone, Mean, read-out: IC50 FZ41, drug alone): 1300 nM | IC50 (Table 10, Ratio 1:2 series with L-731,988, drug alone, Mean, read-out: IC50 FZ41, drug alone): 1300 nM | IC50 (Table 10, Ratio 2:1 series with L-731,988, drug alone, Mean, read-out: IC50 FZ41, drug alone): 1300 nM | IC50 (in the mix with L-731,988, Ratio 1:1, Mean, read-out: IC50 FZ41, in the mix): 900 nM | IC50 (in the mix with L-731,988, Ratio 1:2, Mean, read-out: IC50 FZ41, in the mix): 800 nM | IC50 (in the mix with L-731,988, Ratio 2:1, Mean, read-out: IC50 FZ41, in the mix): 1100 nM | IC50 (in the mix with Nev, Ratio 1:1, Mean, read-out: IC50 FZ41, in the mix): 1100 nM | IC50 (in the mix with Nev, Ratio 1:2, Mean, read-out: IC50 FZ4, in the mix): 900 nM | IC50 (in the mix with Nev, Ratio 2:1, Mean, read-out: IC50 FZ41, in the mix): 1200 nM | IC50 (in the mix with ZVD, Ratio 1:1, Mean, read-out: IC50 FZ41, in the mix): 800 nM | IC50 (in the mix with ZVD, Ratio 1:2, Mean, read-out: IC50 FZ41, in the mix): 700 nM | IC50 (in the mix with ZVD, Ratio 2:1, Mean, read-out: IC50 FZ41, in the mix): 1100 nM

O=C(O)C(=O)CC(=O)c1cccn1Cc1ccc(F)cc1 [L-731,988, 4-[1-(4-fluorobenzyl)pyrrole-2-yl]-2,4-diketobutanoic acid]
IC50 (Human immunodeficiency virus 1, NL43, Table 10, Ratio 1:1 series, drug alone, Mean, read-out: IC50 L-731,988, drug alone): 1500 nM | IC50 (Human immunodeficiency virus 1, NL43, Table 10, Ratio 1:2 series, drug alone, Mean, read-out: IC50 L-731,988, drug alone): 1500 nM | IC50 (Human immunodeficiency virus 1, NL43, Table 10, Ratio 2:1 series, drug alone, Mean, read-out: IC50 L-731,988, drug alone): 1500 nM | IC50 (Human immunodeficiency virus 1, NL43, in the mix with FZ41, Ratio 1:1, Mean, read-out: IC50 L-731,988, in the mix): 300 nM | IC50 (Human immunodeficiency virus 1, NL43, in the mix with FZ41, Ratio 1:2, Mean, read-out: IC50 L-731,988, in the mix): 500 nM | IC50 (Human immunodeficiency virus 1, NL43, in the mix with FZ41, Ratio 2:1, Mean, read-out: IC50 L-731,988, in the mix): 200 nM

Cc1cn([C@H]2C[C@H](N=[N+]=[N-])[C@@H](CO)O2)c(=O)[nH]c1=O [ZVD, 3′-azido-3′-deoxythymidine]
IC50 (Human immunodeficiency virus 1, NL43, Table 8, Ratio 1:1 series, drug alone, Mean, read-out: IC50 ZVD, drug alone): 29 nM | IC50 (Human immunodeficiency virus 1, NL43, Table 8, Ratio 1:2 series, drug alone, Mean, read-out: IC50 ZVD, drug alone): 46 nM | IC50 (Human immunodeficiency virus 1, NL43, Table 8, Ratio 2:1 series, drug alone, Mean, read-out: IC50 ZVD, drug alone): 44 nM | IC50 (Human immunodeficiency virus 1, NL43, in the mix with FZ41, Ratio 1:1, Mean, read-out: IC50 ZVD, in the mix): 16 nM | IC50 (Human immunodeficiency virus 1, NL43, in the mix with FZ41, Ratio 1:2, Mean, read-out: IC50 ZVD, in the mix): 28 nM | IC50 (Human immunodeficiency virus 1, NL43, in the mix with FZ41, Ratio 2:1, Mean, read-out: IC50 ZVD, in the mix): 11 nM
